Data taken from patent EP2924040A1, “2-Amino-1-(o-tolyl)pyrrolo[3,2-b]quinoxaline-3-carboxamide derivates” (Universität Zürich, priority 2014, dated 2015).

Experiments:
A498 = experiment: Cell culture and GI50 determination (resazurin); type: cell-based; conditions: Homo sapiens, A498, 48h incubation
Procedure: (§1) MDA-MB-231 (breast cancer) and KM12 (colon cancer) cells obtained from the UZH Cancer Institute, HOP-92 (lung cancer) cells purchased from the National Cancer Institute (NCl) and A498 (kidney cancer) cells obtained from Prof. Krek (Institute of Cell Biology, ETH Zurich) were cultured in Dulbecco's modified Eagle's medium (DMEM) supplemented with 10% (v/v) fetal bovine serum. K562 leukemia cells obtained from Dr. Silvio Hemmi (Institute of Molecular Life Sciences, UZH) were cultured using RPMI medium supplemented with 5% (v/v) fetal bovine serum. All the media was additionally supplemented with 100 units/mL of penicillin, 100µg/mL of streptomycin, 4.5 g/L glucose, 0.11g/L sodium pyrubate and 2mM glutamine and the cells were grown at 37 °C in 5% CO2 atmosphere with 80% relative humidity.
(§2) MDA-MB-231, HT-29, KM12, HOP-92 and A498 cells were plated at 10,000 cells per well (100 µL per well) in 96-well culture dishes and allowed to incubate for 24 h. The old media was removed, the cells were washed with PBS (phosphate-buffered saline) and fresh media was added. A 5 mmol/L solution of inhibitor (in 100% DMSO) was serially diluted in the culture media (12 different concentrations were used) and allowed to incubate for 72 h (MDA-MB-231) or 48h (A498). Control cells were treated with the same DMSO concentrations. After the incubation period the media was once more removed and the cells were washed with PBS to then be incubated with fresh media containing 86 nmol/L resazurin. After 3 hours, the fluorescence was quantified using a fluorescence microplate reader (Biotek, FLx800™) at the respective excitation and emission wavelength of 560 and 590 nm. Resazurin becomes fluorescent under mitochondrial reduction and its emission directly correlates with the metabolic stability of the cells. The measured fluorescence values were corrected from the control samples containing DMSO and GI50 values were determined by plotting the fraction of metabolically active cells against the log of the drug concentration. All measurements were performed at least in triplicate.

HOP-92 = experiment: Cell culture and GI50 determination (resazurin); type: cell-based; conditions: Homo sapiens; HOP-92, resazurin
Procedure: as §1, §2

MDA-MB-231 = experiment: Cell culture and GI50 determination (resazurin); type: cell-based; conditions: Homo sapiens, MDA-MB-231, 72 h incubation
Procedure: as §1, §2

KM12 = experiment: Cell culture and GI50 determination (resazurin); type: cell-based; conditions: Homo sapiens
Procedure: as §1, §2

EphB4 = biological target: T1, EphB4 (Homo sapiens, UniProt P54760); experiment: FRET based enzymatic assay (Z'-LYTE Kinase Assay Kit-Tyr 1 Peptide); type: biochemical; conditions: EphB4 25 ng/µL, ATP 125 µM, room temperature, 2 h
T1 sequence (P54760 16-987): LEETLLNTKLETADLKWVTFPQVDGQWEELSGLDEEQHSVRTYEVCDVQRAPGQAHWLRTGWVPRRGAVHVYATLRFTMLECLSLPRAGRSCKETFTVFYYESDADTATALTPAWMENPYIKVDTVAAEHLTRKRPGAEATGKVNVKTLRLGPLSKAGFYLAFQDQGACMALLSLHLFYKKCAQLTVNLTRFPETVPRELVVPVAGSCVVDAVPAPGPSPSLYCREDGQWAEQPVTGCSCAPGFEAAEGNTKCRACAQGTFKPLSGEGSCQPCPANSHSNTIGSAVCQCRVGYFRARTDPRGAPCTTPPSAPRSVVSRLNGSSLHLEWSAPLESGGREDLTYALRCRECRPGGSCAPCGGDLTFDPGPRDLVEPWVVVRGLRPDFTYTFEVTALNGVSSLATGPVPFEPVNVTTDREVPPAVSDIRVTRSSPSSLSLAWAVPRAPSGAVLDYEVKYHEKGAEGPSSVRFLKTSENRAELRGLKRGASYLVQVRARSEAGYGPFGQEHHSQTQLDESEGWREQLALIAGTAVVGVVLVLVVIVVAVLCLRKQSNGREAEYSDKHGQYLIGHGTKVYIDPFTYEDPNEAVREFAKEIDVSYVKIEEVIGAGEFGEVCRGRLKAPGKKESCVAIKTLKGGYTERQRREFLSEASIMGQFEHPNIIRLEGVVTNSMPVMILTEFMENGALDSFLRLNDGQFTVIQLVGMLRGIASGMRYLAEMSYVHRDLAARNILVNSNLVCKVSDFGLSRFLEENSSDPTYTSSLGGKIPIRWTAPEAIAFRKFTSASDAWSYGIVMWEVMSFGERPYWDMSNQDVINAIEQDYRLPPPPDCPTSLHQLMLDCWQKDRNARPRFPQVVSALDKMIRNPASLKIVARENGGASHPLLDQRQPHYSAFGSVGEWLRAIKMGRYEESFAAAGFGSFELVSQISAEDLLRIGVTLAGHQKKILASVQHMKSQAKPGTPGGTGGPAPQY
Procedure: Selected compounds were tested in the Z'-LYTE™ Kinase Assay Kit-Tyr 1 Peptide (Invitrogen, USA) in a Corning 384 well microtiter plate. Fluorescence progress curves were measured upon excitation at 400 nm and emission at 445 and 520 nm.

Cc1ccc(O)cc1-n1c(N)c(C(N)=O)c2nc3ccccc3nc21 [Compound 2, 2-Amino-1-(5-hydroxy-2-methylphenyl)-1H-pyrrolo[2,3-b]quinoxaline-3-carboxamide]
GI50 (A498): 5880 nM
GI50 (HOP-92): 490 nM
GI50 (MDA-MB-231): 2640 nM
GI50 (KM12): 1550 nM
IC50 (EphB4): 11 nM
